What was measured:
[1] = cited from earlier work
JAK2 JH2 = JAK2 JH2 (Homo sapiens, UniProt O60674, F794H/W659A/W777A); test: Competitive fluorescence polarization
JAK2 JH2, sequence (O60674 536-812 W659A/W777A/F794H): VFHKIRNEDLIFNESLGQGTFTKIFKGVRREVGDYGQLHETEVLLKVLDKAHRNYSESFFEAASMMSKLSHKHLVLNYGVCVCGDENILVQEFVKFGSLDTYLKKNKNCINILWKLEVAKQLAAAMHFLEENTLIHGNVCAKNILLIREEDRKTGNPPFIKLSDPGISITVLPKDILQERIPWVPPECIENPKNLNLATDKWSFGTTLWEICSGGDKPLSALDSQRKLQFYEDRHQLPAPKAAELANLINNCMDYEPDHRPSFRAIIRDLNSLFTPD

Molecule	octanol/water log P [1]	also measured
furan	1.34	–
c1cocn1 [oxazole]	0.12	–
c1cscn1 [thiazole]	0.44	–
Nc1nc(Nc2ccc(S(N)(=O)=O)cc2)nn1C(=O)Nc1ccccc1 [Compound 4, 5-amino-N-phenyl-3-((4-sulfamoylphenyl)amino)-1H-1,2,4-triazole-1-carboxamide]	–	improvement in JAK2 JH2 binding over 2 (JAK2 JH2; FP Kd relative to compound 2): 3 fold
N#Cc1ccc(Nc2nc(N)n(C(=O)Nc3ccc(OCC(=O)O)cc3)n2)cc1 [Compound 9, 2-(4-(5-amino-3-((4-cyanophenyl)amino)-1H-1,2,4-triazole-1-carboxamido)phenoxy)acetic acid]	–	boost in binding strength with JAK2 JH2 compared to 4 (JAK2 JH2; FP Kd relative to compound 4): ca. 8 fold
c1ccsc1 [thiophene]	1.81	–

Reference: PMC7949251 (Journal of medicinal chemistry, 2020)
